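Results reflect a 48-hour exposure of cells in 96-well plates to compound at five concentrations. The concentration for full growth arrest is given as TGI.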
Assays:
Assay in all cases: NCI tumour cell line growth inhibition, 48 h
TK-10 renal = tested on: TK-10 renal
786-0 renal = tested on: 786-0 renal
MDA-MB-231 breast = tested on: MDA-MB-231 breast
HCC-2998 colon = tested on: HCC-2998 colon
K-562 leukemia = tested on: K-562 leukemia
RPMI-8226 leukemia = tested on: RPMI-8226 leukemia
NCI-H23 lung = tested on: NCI-H23 lung
NCI-H226 lung = tested on: NCI-H226 lung
SF-295 CNS = tested on: SF-295 CNS
EKVX NSCLC = tested on: EKVX NSCLC
OVCAR-5 ovarian = tested on: OVCAR-5 ovarian

Row | Compound | TGI (TK-10 renal) | TGI (786-0 renal) | TGI (MDA-MB-231 breast) | TGI (HCC-2998 colon) | TGI (K-562 leukemia) | TGI (RPMI-8226 leukemia) | TGI (NCI-H23 lung) | TGI (NCI-H226 lung) | TGI (SF-295 CNS) | TGI (EKVX NSCLC) | TGI (OVCAR-5 ovarian)
1 | CN(C)CCN1C(=O)N(CCN(C)C)c2c3cc(O)ccc3nc3c([N+](=O)[O-])ccc1c23 | 33.6 µM | 19 µM | 25.4 µM | 25.8 µM | 14.5 µM | 42.4 µM | 36.6 µM | 30.5 µM | – | – | –
2 | O=C1CCC(CCc2nc3ccccc3[nH]2)(c2ccccc2)C(=O)N1 (stereo not drawn) | > 100 µM | > 100 µM | > 100 µM | > 100 µM | > 100 µM | > 100 µM | > 100 µM | > 100 µM | > 100 µM | > 100 µM | > 100 µM
3 | O=C(/C=C/CC(O)(c1ccccc1)c1ccccc1)Nc1ccccc1Cl | > 100 µM | – | – | > 100 µM | > 100 µM | > 100 µM | > 100 µM | > 100 µM | > 100 µM | > 100 µM | > 100 µM
4 | C=C1C[C@@H]2CC[C@@]34CC5O[C@H]6C(O[C@H]7CC[C@H](CC(=O)O[C@@H]8[C@@H](C)[C@@H]9O[C@@H]%10C[C@]%11(C[C@@H]%12O[C@]%13(C[C@H](C)[C@@H]%14O[C@@H]%15CC(C(COC(C)=O)OC(C)=O)O[C@@H]%15C[C@@H]%14O%13)C[C@H](C)[C@@H]%12O%11)O[C@@H]%10C[C@@H]9O[C@H]8CC8O[C@@H](CC[C@@H]1O2)C[C@@H](C)C8(O)CO)O[C@@H]7[C@@H]6O3)[C@H]5O4 (stereo partly drawn) | > 1 µM | > 1 µM | > 1 µM | > 0.225 µM | > 1 µM | > 1 µM | 0.997 µM | > 1 µM | > 1 µM | > 1 µM | > 1 µM
5 | CC1OC2OC3C(OCC(O)C3O)OC(=O)[C@]34CCC(C)(C)CC3C3=CCC5[C@@]6(C)C[C@H](O)[C@H](OC7OC(CO)C(O)C(O)C7OC7OC(COC(=O)CC(C)(O)CC(=O)OC1C(OC1OC(CO)C(O)C(O)C1O)C2O)C(O)C(O)C7O)[C@@](C)(CO)C6CC[C@@]5(C)[C@]3(C)CC4 (stereo partly drawn) | 7.92 µM | 11.9 µM | 16.4 µM | 2.65 µM | – | 10.2 µM | 3.23 µM | 22.7 µM | 3.72 µM | – | 5.7 µM
6 | Brc1ccc(/C(N=N/C(=N\Sc2ccccc2)c2ccc(Br)cc2)=N/Sc2ccccc2)cc1 | > 100 µM | > 100 µM | > 100 µM | > 100 µM | > 100 µM | > 100 µM | > 100 µM | > 100 µM | > 100 µM | > 100 µM | > 100 µM
7 | CC(C)NC(=O)OCc1c(COC(=O)NC(C)C)n(C)c2c1ccc1cc(Cl)c(Cl)cc12 | 19.4 µM | 20.5 µM | 25.3 µM | – | > 100 µM | 39.5 µM | 31.1 µM | 17.3 µM | 30.8 µM | 41.9 µM | 29.4 µM
8 | CC(=O)Oc1ccc2c(c1)O/C(=C\c1ccc(O)cc1)C2=O | > 100 µM | > 100 µM | > 100 µM | > 100 µM | > 100 µM | > 100 µM | > 100 µM | > 100 µM | > 100 µM | > 100 µM | –
9 | COc1ccc(C(=O)/C=C/c2ccc(OCCCCCCCCCCOc3ccc(/C=C/C(=O)c4ccc(OC)c(OC)c4)cc3)cc2)c(OC)c1 | > 100 µM | > 100 µM | > 100 µM | > 100 µM | > 100 µM | > 100 µM | – | > 100 µM | > 100 µM | > 100 µM | > 100 µM
10 | Nc1cc2nc(-c3ccccc3)cn2cn1 | > 100 µM | > 100 µM | > 100 µM | – | > 100 µM | > 100 µM | > 100 µM | > 100 µM | > 100 µM | 95.3 µM | > 100 µM
11 | Oc1ccc(C[C@@H]2CN[C@H](Cc3ccc(O)c(Br)c3)CN2)cc1 | > 100 µM | > 100 µM | > 100 µM | > 100 µM | – | – | > 100 µM | > 100 µM | > 100 µM | > 100 µM | > 100 µM
12 | CSc1ncnc2c1cnn2Cc1cn(COCC(O)CO)nn1 (stereo not drawn) | > 100 µM | > 100 µM | > 100 µM | > 100 µM | – | > 100 µM | > 100 µM | > 100 µM | > 100 µM | > 100 µM | > 100 µM
13 | CN1C2CCC1C(CO)C(=O)C2 (stereo not drawn) | 59.3 µM | – | > 100 µM | > 100 µM | 72 µM | 54.1 µM | > 100 µM | > 100 µM | > 100 µM | – | –
14 | CCOC(=O)C(NC(=O)CC)(Nc1ccccc1F)C(F)(F)F (stereo not drawn) | > 100 µM | – | > 100 µM | > 100 µM | > 100 µM | > 100 µM | > 100 µM | – | > 100 µM | > 100 µM | > 100 µM
15 | CCOC(=O)c1c(-c2ccc(OC)cc2)c(C#N)c(=S)n(C2OC(CO)C(O)C(O)C2O)c1C (stereo not drawn) | > 100 µM | > 100 µM | > 100 µM | > 100 µM | > 100 µM | – | > 100 µM | > 100 µM | > 100 µM | > 100 µM | > 100 µM
16 | O=c1[nH]nc(-c2ccc([N+](=O)[O-])cc2)[nH]1 | > 100 µM | > 100 µM | – | > 100 µM | > 100 µM | > 100 µM | > 100 µM | > 100 µM | > 100 µM | > 100 µM | > 100 µM
17 | O=C(O)Cn1c[n+](NC(=O)Cc2ccccc2)cn1 | > 10 µM | > 10 µM | > 10 µM | > 10 µM | > 10 µM | > 10 µM | > 10 µM | – | > 10 µM | > 10 µM | > 10 µM
18 | CC(=O)Nc1ccc2c(c1)nc1c3ccccc3ccn21 | > 100 µM | > 100 µM | > 100 µM | – | > 100 µM | – | > 100 µM | > 100 µM | > 100 µM | > 100 µM | > 100 µM
19 | COc1ccccc1Cn1c2c(c3cc(O)ccc31)C(=O)c1ccccc1C2=O | > 100 µM | 45.5 µM | 38.2 µM | – | > 100 µM | 45.7 µM | 95.8 µM | 79 µM | 42.2 µM | – | 34.1 µM
20 | CCOP(=O)(CC1OC(CO)C(O)C1O)OCC (stereo not drawn) | > 100 µM | > 100 µM | > 100 µM | > 100 µM | > 100 µM | > 100 µM | > 64.1 µM | – | > 100 µM | > 100 µM | > 100 µM

From PubChem BioAssay (NCI)
